Measurements published in article PMC8154566, “Scaffold-Hopping Strategy on a Series of Proteasome Inhibitors Led to a Preclinical Candidate for the Treatment of Visceral Leishmaniasis” (Journal of Medicinal Chemistry, 2021).
In brackets after ≈: the same amount, converted by molar mass. Where two headings read alike, the source gives them in different places.

Tests used:
THP-1 cells = assay: THP-1 host cell read-out of the INMAC assay; assay type: cell-based; details: Homo sapiens
Method: (§1) Intramacrophage L. donovani Assay. This assay was conducted as previously described, except for […]

L. donovani amastigotes = assay: INMAC assay: intramacrophage L. donovani in differentiated THP-1 cells; assay type: cell-based, Leishmania donovani; details: for IC50 / EC50: Leishmania donovani; for IC50: THP-1, read-out: LdInMac pIC50 (converted); for EC50: THP-1; for loss of potency: INMAC, relative to compound 4
Method: as §1

[1] = Kinetic aqueous solubility by CLND; assay type: physicochemical
Method: We had successfully used these criteria in the hit to lead stage to identify compounds for in vivo proof-of-concept studies in another program, which subsequently led to the identification of preclinical candidate DDD853651/GSK3186899 active against CRK12.[7] […] A pharmacokinetic (PK) study was thus performed, dosed at 10 mg/kg po and 3 mg/kg iv. […] With the limited knowledge of the PK/PD drivers for the treatment of VL, we considered this to be a suitable profile for the progression of 4 into a previously reported mouse efficacy model of VL,[6],[7],[17],[18] where it was dosed twice daily at 50 mg/kg ip in order to further maximize exposure and give the best chance of achieving proof-of-concept.
(§2) Intramacrophage L. donovani Assay. This assay was conducted as previously described, except for compound exposure time, which was 96 h instead of 72 h.4
(§3) Intrinsic Clearance. This assay was conducted as previously described.5 Aqueous Solubility. This assay was conducted as previously described.6
(§4) FaSSIF Solublity. This assay was conducted as previously described.5,7
(§5) In vivo Mouse Efficacy Studies. In vivo studies were carried out as previously described, with minor modifications.7 Briefly: Control drug used was Miltefosine (30 mg/kg orally, twice daily for 5 days), vehicle used was 10% (v/v) dimethyl sulfoxide (DMSO), 40% polyethylene glycol 400, and 50% deionized water (10 Ml/kg orally, twice daily for 5 days) and mice were treated with test compound intraperitoneally (50 mg/kg twice daily for 5 days). 5
(§6) All regulated procedures on living animals were carried out under the authority of a project license issued by the Home Office under the Animals (Scientific Procedures) Act 1986, as amended in 2012 (and in compliance with EU Directive EU/2010/63). Infected animals had access to food and water ad libitum and were housed under a 12 hour light/dark photoperiod. Animals used in these experiments were female NMRI and Balb/c mice (Harlan, UK).
(§7) Test compound DDD01008714 was dosed orally (P.O.) at 10 mg free base/kg (dose volume 10 mL/kg; dose vehicle: 10% (vol/vol) dimethyl sulfoxide (DMSO), 40% polyethylene glycol 400 (PEG400) and 50% deionized water) to female NMRI mice (n = 3) or intravenously (I.V.) at 3 mg free base/kg (dose volume 5 mL/kg; dose vehicle: 10% (vol/vol) dimethyl sulfoxide (DMSO) and 90% Saline) to female Balb/c mice (n = 3). Blood samples (10 μL) where taken from the tail vein of […]

[2] = FaSSIF (fasted state simulated intestinal fluid) solubility; assay type: physicochemical
Method: as §2, §3, §4, §5, §6, §7

[3] = Mouse liver microsomal intrinsic clearance; assay type: in vitro ADME; details: for Mouse CLi: mouse liver microsomes; for Cli (mouse, ml/min/g): supplementary csv
Method: as §2, §3, §4, §5, §6, §7

[4] = THP-1, Table 5, read-out: THP-1 pEC50 (converted)
[5] = THP-1, supplementary csv, read-out: THP1 pIC50 (converted)
[6] = Table 5, at least three replicates, SD ≤0.4, read-out: INMAC pEC50 (converted)
[7] = Table 5, kinetic, CLND, read-out: Aq. solubility
[8] = THP-1, Table 2, read-out: THP-1 (pEC50) (converted)
[9] = Table 2, at least three replicates, SD ≤0.4, read-out: INMAC (pEC50) (converted)
[10] = Table 2, kinetic, CLND, read-out: Aq. solubility
[11] = supplementary csv, read-out: Aqueous Solubility
[12] = THP-1, Table 6, read-out: THP-1 pEC50 (converted)
[13] = Table 6, at least three replicates, SD ≤0.4, read-out: INMAC pEC50 (converted)
[14] = Table 6, kinetic, CLND, read-out: Aq. solubility
[15] = THP-1, read-out: THP1 pIC50 (converted)

Row | Compound | EC50 (THP-1 cells; [4]) [µM] | IC50 (THP-1 cells; [5]) [µM] | EC50 (L. donovani amastigotes; [6]) [nM] | solubility [1, 7] [µM] | Mouse CLi ([3]; Table 5) [mL/min/g] | Cli (mouse, ml/min/g) [3] [mL/min/g] | solubility [1, 11] [µM] | solubility ([2]; supplementary csv) [µM] | EC50 (THP-1 cells; [12]) [µM] | EC50 (L. donovani amastigotes; [13]) [nM] | solubility [1, 14] [µM] | solubility at 4 h ([2]; pH 6.5, Table 6) [µM] | Mouse CLi ([3]; Table 6) [mL/min/g] | other results
1 | O=C(Nc1ccc(F)c(-c2cn3ncc(N4CCOCC4)cc3n2)c1)N1CCCC1 [Compound 15, N-[4-Fluoro-3-(7-morpholinoimidazo[1,2-b]pyridazin-2-yl)phenyl]pyrrolidine-1-carboxamide] | > 50.1 | > 50.1 | > 50100 | 58 (≈ 23.8 µg/mL) | 2.0 | 2 |  |  |  |  |  |  |  | IC50 (L. donovani amastigotes): > 50.1 µM; INMAC pEC50 (L. donovani amastigotes; Table 5, at least three replicates, SD ≤0.4): inactive; solubility at 4 h ([2]; pH 6.5, Table 5): 22 µM (≈ 9.03 µg/mL)
2 | O=C(Nc1cc(-c2cn3cc(N4CCOCC4)cnc3n2)ncn1)N1CCCC1 [Compound 10, N-(6-(6-Morpholinoimidazo[1,2-a]pyrimidin-2-yl)pyrimidin-4-yl)pyrrolidine-1-carboxamide] |  | > 50.1 |  |  |  | <0.5 | ≥ 440 | > 1000 |  |  |  |  |  | EC50 (THP-1 cells; [8]): > 50.1 µM; loss of potency (L. donovani amastigotes): > 10 fold; IC50 (L. donovani amastigotes): > 50.1 µM; EC50 (L. donovani amastigotes; [9]): > 50100 nM; solubility [1, 10]: ≥ 435 µM; solubility ([2]; Table 2): > 100 µM; solubility at 4 h ([2]; pH 6.5, Table 2): 2050 µM (≈ 807 µg/mL); Mouse CLi ([3]; Table 2): <0.5 mL/min/g
3 | O=C(Nc1ccc(F)c(-c2ccn3c(CN4CCOCC4)cnc3n2)c1)N1CCCC1 [Compound 32, N-(4-Fluoro-3-(3-(morpholinomethyl)imidazo[1,2-a]pyrimidin-7-yl)phenyl)pyrrolidine-1-carboxamide] |  | 63.1 |  |  |  | 16 |  | 730 (≈ 310 µg/mL) | 63.1 | 10000 | ≥ 348 | 728 (≈ 309 µg/mL) | 16 | 
4 | O=C(Nc1ccc(F)c(-c2cn3nc(N4CCOCC4)cnc3n2)c1)N1CCCC1 [Compound 23, N-(4-Fluoro-3-(2-morpholinoimidazo[1,2-b][1,2,4]triazin-6-yl)phenyl)pyrrolidine-1-carboxamide] | > 50.1 |  | 398 | 126 (≈ 51.8 µg/mL) | 0.9 | 0.9 | 130 (≈ 53.5 µg/mL) | 140 (≈ 57.6 µg/mL) |  |  |  |  |  | IC50 (THP-1 cells; [15]): > 50.1 µM
5 | O=C(Nc1ccc(F)c(-c2cc3cc(N4CCOCC4)cnc3o2)c1)N1CCCC1 [Compound 20, N-(4-Fluoro-3-(5-morpholinofuro[2,3-b]pyridin-2-yl)phenyl)pyrrolidine-1-carboxamide] | > 50.1 | > 50.1 | 50.1 | 25 (≈ 10.3 µg/mL) | 4.0 | 4 |  |  |  |  |  |  |  | solubility at 4 h ([2]; pH 6.5, Table 5): 7 µM (≈ 2.87 µg/mL)
6 | C[C@@H]1CN(c2cnc3nc(-c4cc(NC(=O)N5CCCC5)ccc4F)ccn23)C[C@H](C)O1 [Compound 41, N-(3-(3-((2S,6R)-2,6-Dimethylmorpholino)imidazo[1,2-a]pyrimidin-7-yl)-4-fluorophenyl)pyrrolidine-1-carboxamide] |  |  |  |  |  | 3.4 | 170 (≈ 74.5 µg/mL) | 365 (≈ 160 µg/mL) | 63.1 | 1580 | 142 (≈ 62.3 µg/mL) | 372 (≈ 163 µg/mL) | 3.4 | IC50 (THP-1 cells; [15]): 63.1 µM
7 | O=C(Nc1cc(-c2cn3cc(N4CCOCC4)cnc3n2)ccc1F)N1CCCC1 [Compound 5, N-(2-Fluoro-5-(6-morpholinoimidazo[1,2-a]pyrimidin-2-yl)phenyl)pyrrolidine-1-carboxamide] |  | > 50.1 |  |  |  | 0.9 | 260 (≈ 107 µg/mL) |  |  |  |  |  |  | EC50 (THP-1 cells; [8]): > 50.1 µM; loss of potency (L. donovani amastigotes): > 10 fold; EC50 (L. donovani amastigotes; [9]): 15800 nM; solubility [1, 10]: 256 µM (≈ 105 µg/mL); solubility at 4 h ([2]; pH 6.5, Table 2): 51 µM (≈ 20.9 µg/mL); Mouse CLi ([3]; Table 2): 0.9 mL/min/g
8 | CC1(C)CN(c2cnc3nc(-c4cc(NC(=O)N5CCCC5)ccc4F)ccn23)CCO1 [Compound 42, N-(3-(3-(2,2-Dimethylmorpholino)imidazo[1,2-a]pyrimidin-7-yl)-4-fluorophenyl)pyrrolidine-1-carboxamide] |  | 25.1 |  |  |  | 2.9 | 250 (≈ 110 µg/mL) | > 1000 | 25.1 | 1000 | 247 (≈ 108 µg/mL) | 1840 (≈ 806 µg/mL) | 2.9 | 
